# Data published in US12453733B2, “Composition for prevention or treatment of intractable epilepsy comprising mTOR inhibitor” (SoVarGen Co., Ltd., priority 2015, dated 2025).
# “Also recorded” adds a separate entry of the source.
# Experiments:
# Type in all cases: cell-based, human
# [1] = test system: TSC1 mutant-expressing HEK293T cells; assay: Western blot of S6K phosphorylation in TSC1 mutant-expressing HEK293T cells after drug treatment; settings: Example 11; FIGS. 24a and 24b
# Protocol: (§1) Briefly, HEK293T cells (Thermo Scientific) were cultured in DMEM (Dulbecco's Modified Eagle's Medium) supplemented with 10% FBS at 37° C. and 5% CO2. The cells were transfected with empty flag-tagged vector, HA-tagged TSC1 wild-type, HA-tagged TSC2 wild-type, HA-tagged AKT3 wild-type, HA-tagged TSC1 mutant, HA-tagged TSC2 mutant and HA-tagged AKT3 mutant, respectively, using jetPRIME transfection reagent (Polyplus, France).
# (§2) The cells were serum-starved with 0.1% FBS in DMEM for 24 hours after transfection and then incubated at 37° C. and 5% CO2 in PBS containing 1 mM MgCl2 and CaCl2 for 1 hour. The cells were lysed with PBS containing 1% Triton X-100 and Halt protease and phosphatase inhibitor cocktail (78440, Thermo Scientific, USA). Proteins were resolved by SDS-PAGE and transferred to PVDF membranes (Millipore, USA). The membranes were blocked with 3% BSA in TBS containing 0.1% Tween 20 (TBST). They were washed 4 times with TBST. The membranes were incubated overnight with primary antibodies including a 1/1000 dilution of anti-phospho-S6 ribosomal protein (5364, Cell Signaling Technology, USA), anti-56 ribosomal protein (2217, Cell Signaling Technology, USA), and anti-flag M2 (8164, Cell Signaling Technology, USA) in TBST at 4° C., respectively. After incubation, the membranes were washed 4 times with TBST. […]
# [2] = test system: TSC2 mutant-expressing HEK293T cells; assay: Western blot of S6K phosphorylation in TSC2 mutant-expressing HEK293T cells after drug treatment; settings: Example 11; FIGS. 25a and 25b
# Protocol: as §1, §2
# [3] = test system: mutant mTOR-expressing HEK293T cells; assay: Western blot of S6/S6K phosphorylation in mutant mTOR-expressing HEK293T cells after drug treatment; settings: for phosphorylation of S6K in all the mutant mTOR-expressing cells: Y1450D, C1483R, R1709H, Y1977K, S2215F, L2427P, L2427Q
# Protocol: HEK293T cells (Thermo Scientific) was cultured in DMEM (Dulbecco's Modified Eagle's Medium) containing 10% FBS at 37° C. and 5% CO2. The cells were transfected with empty flag-tagged vector, flag-tagged mTOR wild type, and flag-tagged mTOR mutants using jetPRIME transfection reagent (Polyplus, France). The cells were serum-starved with DMEM containing 0.1% FBS for 24 hours after transfection and then incubated at 37° C. and 5% CO2 in PBS containing 1 mM MgCl2 and CaCl2 for 1 hour. The cells were lysed with PBS containing 1% Triton X-100 and Halt protease and phosphatase inhibitor cocktail (78440, Thermo Scientific, USA).
# Proteins were resolved by SDS-PAGE and transferred to PVDF membranes (Millipore, USA). The membranes were blocked with 3% BSA in TBS containing 0.1% Tween 20 (TBST). They were washed 4 times with TBST. The membranes were each incubated overnight at 4° C. with primary antibodies including a 1/1000 dilution of anti-phospho-S6 ribosomal protein (5364, Cell Signaling Technology, USA), anti-56 ribosomal protein (2217, Cell Signaling Technology, USA), and anti-flag M2 (8164, Cell Signaling Technology, USA) in TBST. After incubation, the membranes were washed 4 times with TBST. They were incubated with a 1/5000 dilution of HRP-linked anti-rabbit or anti-mouse secondary antibodies (7074, Cell Signaling Technology, USA) for 2 hours at room temperature. After washing with TBST, immunodetection was performed using ECL reaction reagents.
# Transfection of mTOR mutants into HEK293T cells was carried out in the same manner as in Example 3-2. Then, the cells were serum-starved with DMEM containing 0.1% FBS for 24 hours and incubated at 37° C. and 5% CO2 in PBS containing 1 mM MgCl2 and CaCl2 for 1 hour, followed by treatment with rapamycin, everolimus, or compounds of Chemical Formulas 1 to 4 (Torinl, INK128, AZD8055, GSK2126458); Torin was purchased from TOCRIS, INK128, AZD8055, and GSK2126458 were provided from Selleckchem, and everolimus was purchased from LC laboratory. Subsequently, Western blotting was performed in the same manner as in Example 9.
# Cells expressing various mTOR mutations were treated in the same manner as in Example 3-2 with rapamycin, everolimus, or the compounds of Chemical Formulas 1 to 4 and monitored for S6K phosphorylation. The mTOR mutations were R624H, Y1450D, C1483R, R1709H, Y1977K, S2215F, L2427P, and L2427Q. […]
# Cells expressing various mTOR mutations were treated in the same manner as in Example 9-1 with rapamycin, everolimus, or the compounds of Chemical Formulas 1 to 4, and monitored for S6K phosphorylation. […]
structure (smiles),measurement,setting,value
CO[C@H]1C[C@@H]2CC[C@@H](C)[C@@](O)(O2)C(=O)C(=O)N2CCCC[C@H]2C(=O)O[C@H]([C@H](C)C[C@@H]2CC[C@@H](OCCO)[C@H](OC)C2)CC(=O)[C@H](C)/C=C(\C)[C@@H](O)[C@@H](OC)C(=O)[C@H](C)C[C@H](C)/C=C/C=C/C=C/1C [everolimus],S6K phosphorylation in TSC1 mutant-expressing cells,[1],inhibit
same,S6K phosphorylation in TSC2 mutant-expressing cells,[2],inhibit
same,phosphorylation of S6K in mutant mTOR-expressing cells,"[3]; Example 3-4, HEK293T, Western blot, FIGS. 9a to 9c",inhibited; also recorded: reduce
same,phosphorylation of S6K in all the mutant mTOR-expressing cells,"[3]; Example 3-5, mutations R624H, FIGS. 13 and 14",inhibited
same,phosphorylation of S6 in mutant mTOR-expressing cells,"[3]; Example 10-1, FIG. 22, mTOR L2427P-expressing cells",inhibited
same,phosphorylation of S6K in all the mutant mTOR-expressing cells,"[3]; Example 10-2, variants R624H, FIGS. 23a and 23b",inhibited
